Test results taken from publication PMC7662900, “Development of a Bestatin-SAHA Hybrid with Dual Inhibitory Activity against APN and HDAC” (Molecules, 2020).
Entries after “also recorded” stand apart in the source; their conditions may differ. Like-named read-outs stand apart in the source and are kept apart here.

Key:
[1] = molecular target: T1, HDAC1 (Homo sapiens, UniProt Q13547); test: In vitro HDACs inhibitory assay (fluorogenic substrate), HDAC1; assay type: biochemical
T1 construct: purchased BPS Bioscience
Experimental: (§1) All the HDAC enzymes were brought from BPS Bioscience. Ten μL of enzyme solution (HDAC1, HDAC6 or HDAC8) was mixed with different concentrations of tested compound (50 μL). The mixture was incubated at 37 °C for 5 min, followed by adding 40 μL fluorogenic substrate (Boc-Lys(acetyl)-AMC for HDAC1 and HDAC6, Boc-Lys(triflouroacetyl)-AMC for HDAC8). After incubation at 37 °C for 30 min, the mixture was quenched by addition of 100 μL of developer containing trypsin and Trichostatin A. Over another incubation at 37 °C for 20 min, fluorescence intensity was measured using a microplate reader at excitation and emission wavelengths of 390 nm and 460 nm, respectively. The inhibition rates were calculated from the fluorescence intensity readout of tested wells relative to those of control wells, and the IC50 values were calculated using Prism non-linear curve fitting method.

[2] = molecular target: T2, HDAC6 (Homo sapiens, UniProt Q9UBN7); test: In vitro HDACs inhibitory assay (fluorogenic substrate), HDAC6; assay type: biochemical
T2 construct: purchased BPS Bioscience
T2 sequence (Q9UBN7 1-1215): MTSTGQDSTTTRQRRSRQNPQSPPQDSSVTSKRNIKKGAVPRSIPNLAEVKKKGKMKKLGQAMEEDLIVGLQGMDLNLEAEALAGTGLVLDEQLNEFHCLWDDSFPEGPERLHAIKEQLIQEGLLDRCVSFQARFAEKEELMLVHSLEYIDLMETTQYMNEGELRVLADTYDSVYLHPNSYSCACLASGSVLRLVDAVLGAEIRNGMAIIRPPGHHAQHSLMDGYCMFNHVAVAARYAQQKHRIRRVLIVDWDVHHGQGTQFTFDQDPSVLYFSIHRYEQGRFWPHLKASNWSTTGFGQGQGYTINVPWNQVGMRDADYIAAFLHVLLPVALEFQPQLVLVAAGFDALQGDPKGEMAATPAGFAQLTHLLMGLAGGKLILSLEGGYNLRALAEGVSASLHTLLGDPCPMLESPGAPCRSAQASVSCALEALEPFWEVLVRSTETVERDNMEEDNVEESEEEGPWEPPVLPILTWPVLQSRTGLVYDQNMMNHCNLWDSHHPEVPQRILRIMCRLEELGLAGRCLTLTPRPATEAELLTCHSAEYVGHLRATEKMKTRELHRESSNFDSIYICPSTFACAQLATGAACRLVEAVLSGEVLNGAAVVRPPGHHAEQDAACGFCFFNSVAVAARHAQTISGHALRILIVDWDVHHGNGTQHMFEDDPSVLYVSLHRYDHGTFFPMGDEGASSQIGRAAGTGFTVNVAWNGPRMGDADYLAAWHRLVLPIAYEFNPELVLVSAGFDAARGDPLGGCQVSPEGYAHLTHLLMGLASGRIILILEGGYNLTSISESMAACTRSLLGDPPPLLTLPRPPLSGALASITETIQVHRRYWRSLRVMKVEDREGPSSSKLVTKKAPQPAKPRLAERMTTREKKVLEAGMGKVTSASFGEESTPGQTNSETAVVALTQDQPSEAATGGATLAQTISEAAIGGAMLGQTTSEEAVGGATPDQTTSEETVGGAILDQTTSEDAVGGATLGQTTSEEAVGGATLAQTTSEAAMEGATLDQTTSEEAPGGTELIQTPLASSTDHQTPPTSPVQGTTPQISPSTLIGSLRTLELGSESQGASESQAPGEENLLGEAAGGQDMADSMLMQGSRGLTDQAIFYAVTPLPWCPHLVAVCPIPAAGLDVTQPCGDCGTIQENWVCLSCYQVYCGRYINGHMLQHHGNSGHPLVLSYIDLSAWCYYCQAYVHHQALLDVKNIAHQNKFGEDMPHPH
Experimental: as §1

[3] = molecular target: T3, HDAC8 (Homo sapiens, UniProt Q9BY41); test: In vitro HDACs inhibitory assay (fluorogenic substrate), HDAC8; assay type: biochemical
T3 construct: purchased BPS Bioscience
T3 sequence (Q9BY41 1-377): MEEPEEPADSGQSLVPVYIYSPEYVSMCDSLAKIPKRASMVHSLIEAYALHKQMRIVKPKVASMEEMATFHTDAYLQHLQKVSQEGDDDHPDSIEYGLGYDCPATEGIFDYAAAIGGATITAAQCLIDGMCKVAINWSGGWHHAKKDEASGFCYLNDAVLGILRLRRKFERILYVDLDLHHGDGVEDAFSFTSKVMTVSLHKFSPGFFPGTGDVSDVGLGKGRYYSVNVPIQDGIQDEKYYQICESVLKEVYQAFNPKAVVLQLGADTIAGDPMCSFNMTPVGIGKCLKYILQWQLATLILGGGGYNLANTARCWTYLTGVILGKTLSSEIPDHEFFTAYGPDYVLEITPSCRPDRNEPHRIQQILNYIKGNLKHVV
Experimental: as §1

[4] = molecular target: T4, microsomal APN from porcine kidney microsomes (Sus scrofa, UniProt P15145); test: In vitro APN inhibitory assay (l-leu-p-nitroanilide substrate); assay type: biochemical; settings: mean ± SD, n ≥ 3
T4 construct: microsomal APN from porcine kidney microsomes (Biocol); purchased Biocol; host or cells: porcine kidney microsomes (tissue-derived)
T4 sequence (P15145 1-963): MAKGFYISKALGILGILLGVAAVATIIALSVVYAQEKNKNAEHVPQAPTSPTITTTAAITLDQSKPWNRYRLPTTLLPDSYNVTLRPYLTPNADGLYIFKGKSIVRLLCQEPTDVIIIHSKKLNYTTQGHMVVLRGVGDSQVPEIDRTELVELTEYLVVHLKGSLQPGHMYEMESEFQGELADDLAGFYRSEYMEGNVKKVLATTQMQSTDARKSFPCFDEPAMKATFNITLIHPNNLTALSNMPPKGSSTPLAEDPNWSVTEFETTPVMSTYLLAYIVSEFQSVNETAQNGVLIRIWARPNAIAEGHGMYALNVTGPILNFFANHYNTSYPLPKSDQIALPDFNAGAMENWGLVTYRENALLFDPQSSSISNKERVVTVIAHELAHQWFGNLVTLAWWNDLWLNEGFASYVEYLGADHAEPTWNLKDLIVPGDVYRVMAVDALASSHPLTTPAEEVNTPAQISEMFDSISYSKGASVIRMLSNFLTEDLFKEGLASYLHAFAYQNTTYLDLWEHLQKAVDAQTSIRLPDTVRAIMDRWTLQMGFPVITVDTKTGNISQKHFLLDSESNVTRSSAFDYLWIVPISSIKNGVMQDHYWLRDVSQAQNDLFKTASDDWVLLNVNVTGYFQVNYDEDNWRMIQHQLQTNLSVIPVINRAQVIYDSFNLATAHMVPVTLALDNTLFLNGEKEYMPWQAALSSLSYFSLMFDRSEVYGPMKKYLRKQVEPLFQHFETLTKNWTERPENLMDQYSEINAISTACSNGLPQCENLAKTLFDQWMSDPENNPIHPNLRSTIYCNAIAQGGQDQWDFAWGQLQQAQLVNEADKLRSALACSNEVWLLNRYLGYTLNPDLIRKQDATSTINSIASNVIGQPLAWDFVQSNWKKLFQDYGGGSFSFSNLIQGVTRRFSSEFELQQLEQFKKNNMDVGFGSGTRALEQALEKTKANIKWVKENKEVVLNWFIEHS
Experimental: The inhibitory activities of target compounds against APN were determined using l-leu-p-nitroanilide as substrate and microsomal APN from porcine kidney microsomes (Biocol) in 50 mM PBS, pH 7.2 as enzyme. Briefly, inhibitors (40 μL), PBS (145 μL), substrate (5 μL) and APN solution (10 μL) were added into 96-well plates. The mixture was incubated at 37 °C for 30 min. […] The inhibition rates were calculated based on the ultraviolet absorption readout of tested wells relative to those of control wells, and the IC50 values were calculated using Prism non-linear curve fitting method.

[5] = test system: RPMI-8226 cells; test: Western blot analysis of protein levels in RPMI-8226 cells; assay type: cell-based, human; settings: for HDAC1, HDAC6 and HDAC8 protein levels (western blot) / HDAC decreasing effect under cotreatment with proteasome inhibitor bortezomib: 24 h treatment; for acetyl-histone H3 and acetyl-α-tubulin levels (intracellular target engagement) / HDAC1 and HDAC6 protein levels (western blot): 6 h treatment; for HDAC decreasing effect under cotreatment with proteasome inhibitor bortezomib: pre-incubated with 10 nM bortezomib
Experimental: The RPMI-8226 cells were plated in flat-bottom six-well plates and allowed to grow for 12 h, and then treated with compounds or DMSO for a specific time period. Then, the cells were washed twice with cold PBS and lysed in ice-cold RIPA buffer, which comprised 50 mM Tris Base, 150 mM NaCl, 5 mM EDTA, 0.1% (v/v) SDS, 0.5% (v/v) sodium deoxycholate and 1% (v/v) Triton-x-100. Lysates were cleared by centrifugation. Protein concentrations were determined using the BCA assay. Equal amounts of cell extracts were then resolved by SDS-PAGE, transferred to nitrocellulose membrane and probed with HDAC1 antibody, HDAC6 antibody, HDAC8 antibody, acetyl-histone H3 antibody, acetyl-α-tubulin antibody and β-actin antibody, respectively. The membrane was washed twice with TBST buffer before being incubated with secondary antibodies. Images were acquired using a GE ImageQuant LAS 4000.

[6] = test system: rat thoracic aorta rings; test: Ex vivo rat thoracic aorta rings (TARs) assay; assay type: cell-based; settings: for anti-angiogenesis activity (microvessel outgrowth) at 5 μM: compared with bestatin at same concentration; for microvessel outgrowth from thoracic aorta ring: indicated concentrations, treated each day for 5 days
Experimental: Matrigel (100 μL; BD biosciences, NJ) was added into test well of 96-well plates and then allowed to polymerize for 0.5 h at 37 °C. Sprague–Dawley rats that were 4 to 6 weeks old were sacrificed and aortas were harvested. Each aorta was cut into 1 mm slices and embedded in additional 100 μL of Matrigel in 96-well plates. After that, the rings were incubated for 30 min at 37 °C and 5% CO2. Aorta rings were treated with the vehicle (0.5% DMSO) or compounds each day for 5 days and photographed on the sixth day at ×200 magnification. All experiments involving laboratory animals were performed with the approval by the institutional guidelines of Animal Care and Use Committee at Shandong University.

[7] = read-out: Inhibitory Rates at 10 μM, HDAC1
[8] = read-out: Inhibitory Rates at 10 μM, HDAC6
[9] = read-out: Inhibitory Rates at 10 μM, HDAC8

T1 sequence (Q13547 whole entry): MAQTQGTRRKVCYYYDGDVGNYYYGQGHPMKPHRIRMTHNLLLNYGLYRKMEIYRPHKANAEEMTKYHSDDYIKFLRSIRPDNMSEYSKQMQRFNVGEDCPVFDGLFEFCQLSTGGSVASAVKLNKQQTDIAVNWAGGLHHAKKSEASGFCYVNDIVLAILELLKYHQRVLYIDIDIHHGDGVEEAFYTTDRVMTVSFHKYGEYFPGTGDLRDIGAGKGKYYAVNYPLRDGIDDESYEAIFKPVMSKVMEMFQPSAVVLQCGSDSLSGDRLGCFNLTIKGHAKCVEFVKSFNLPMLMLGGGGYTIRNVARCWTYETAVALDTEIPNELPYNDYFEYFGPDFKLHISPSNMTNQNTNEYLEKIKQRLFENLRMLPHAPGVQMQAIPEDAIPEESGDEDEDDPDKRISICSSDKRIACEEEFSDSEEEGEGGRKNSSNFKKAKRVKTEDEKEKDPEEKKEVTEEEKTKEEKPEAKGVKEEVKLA

Compound	IC50 ([1]; mean ± SD, n ≥ 3) [nM]	inhibition at 10 µM ([1]; read-out: Inhibitory Rates at 10 μM, HDAC1, 10 μM) [%]	IC50 ([2]; mean ± SD, n ≥ 3) [nM]	inhibition at 10 µM ([2]; read-out: Inhibitory Rates at 10 μM, HDAC6, 10 μM) [%]	IC50 ([3]; mean ± SD, n ≥ 3) [nM]	inhibition at 10 µM ([3]; read-out: Inhibitory Rates at 10 μM, HDAC8, 10 μM) [%]	IC50 [4] [nM]	HDAC1, HDAC6 and HDAC8 protein levels (western blot) ([5]; 1 μM to 4 μM)	acetyl-histone H3 and acetyl-α-tubulin levels (intracellular target engagement) [5]	HDAC decreasing effect under cotreatment with proteasome inhibitor bortezomib [5]	HDAC1 and HDAC6 protein levels (western blot) ([5]; up to 20 μM)	anti-angiogenesis activity (microvessel outgrowth) at 5 μM [6]	microvessel outgrowth from thoracic aorta ring [6]	HDAC1, HDAC6 and HDAC8 protein levels (western blot) ([5]; 5 μM)	HDAC1 and HDAC6 protein levels (western blot) ([5]; indicated concentrations)	inhibition at 10 µM [1, 7] [%]	inhibition at 10 µM [2, 8] [%]	inhibition at 10 µM [3, 9] [%]
CC(C)C[C@H](NC(=O)[C@@H](O)[C@H](N)Cc1ccccc1)C(=O)NCCCCCC(=O)Nc1ccc(NC(=O)CCCCCCC(=O)NO)cc1.O=C(O)C(F)(F)F [P1, N^1-(4-(6-((S)-2-((2S,3R)-3-Amino-2-hydroxy-4-phenylbutanamido)-4-methylpentanamido)hexanamido)phenyl)-N^8-hydroxyoctanediamide trifluoroacetate]	30	> 90	11.5	> 90	694	> 90	3430 ± 140	significantly decrease the levels of HDAC1, HDAC6 and even HDAC8 in a dose-dependent manner	increased levels of acetyl-histone H3 (the HDAC1 substrate) and acetyl-α-tubulin (the HDAC6 substrate)	could not reverse	did not lead to HDAC1 or HDAC6 depletion	superior anti-angiogenesis activities relative to bestatin	effectively inhibited the microvessel outgrowth in a dose-dependent manner	–	–	–	–	–
O=C(CCCCCCC(=O)Nc1ccccc1)NO [SAHA]	–	–	–	–	–	–	–	–	potently inhibited the intracellular HDAC	could not reverse	–	–	–	effectively lead to the downregulation of HDAC1, HDAC6 and HDAC8	without influencing the levels of HDAC1 and HDAC6	–	–	–
CC(C)C[C@H](NC(=O)[C@@H](O)[C@H](N)Cc1ccccc1)C(=O)NCCOCCOCC(=O)Nc1cccc(C(=O)NO)c1 [P3, 3-((11S,14S,15R)-15-Amino-14-hydroxy-11-isobutyl-10,13-dioxo-16-phenyl-3,6-dioxa-9,12-diazahexadecanamido)-N-hydroxybenzamide]	–	–	–	–	–	–	2650 ± 160	–	–	–	–	superior anti-angiogenesis activities relative to bestatin	effectively inhibited the microvessel outgrowth in a dose-dependent manner	–	–	67	71	51
CC(C)C[C@H](NC(=O)[C@@H](O)[C@H](N)Cc1ccccc1)C(=O)NCCOCCOCCNC(=O)c1cccc(C(=O)NO)c1.O=C(O)C(F)(F)F [P2, N^1-((11S,14S,15R)-15-Amino-14-hydroxy-11-isobutyl-10,13-dioxo-16-phenyl-3,6-dioxa-9,12-diazahexadecyl)-N^3-hydroxyisophthalamide trifluoroacetate]	–	–	–	–	–	–	1670 ± 30	–	–	–	–	superior anti-angiogenesis activities relative to bestatin; also recorded: almost completely inhibit the microvessel outgrowth	effectively inhibited the microvessel outgrowth in a dose-dependent manner	–	–	66	76	64
